Measurements reported in ChEMBL document CHEMBL1201862, “PubChem BioAssay data set” (2004).
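These data come from cells grown in 96-well plates and exposed to compound for 48 hours at five concentrations. Here, GI50 denotes the concentration required for 50% inhibition of growth.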 Active and inactive are the calls of the source. Rule as the data show it: active = GI50 up to about 1.1 µM and inactive = higher.

What was measured:
Assay in all cases: DTP human tumour cell line panel, 48 h
RXF 393 = system: RXF 393
ACHN = system: ACHN
OVCAR-4 = system: OVCAR-4
NCI-H522 = system: NCI-H522
SK-OV-3 = system: SK-OV-3
A549 = system: A549
U-251 = system: U-251
SK-MEL-2 = system: SK-MEL-2
NCI-H226 = system: NCI-H226
HCT-15 = system: HCT-15
HL-60 = system: HL-60
HCT-116 = system: HCT-116
LOX IMVI = system: LOX IMVI
SR = system: SR
HOP-92 = system: HOP-92
OVCAR-3 = system: OVCAR-3
BT-549 = system: BT-549
MDA-MB-231 = system: MDA-MB-231
T47D = system: T47D
DU-145 = system: DU-145

Row | Compound | GI50 (RXF 393) | GI50 (ACHN) | GI50 (OVCAR-4) | GI50 (NCI-H522) | GI50 (SK-OV-3) | GI50 (A549) | GI50 (U-251) | GI50 (SK-MEL-2) | GI50 (NCI-H226) | GI50 (HCT-15) | GI50 (HL-60) | GI50 (HCT-116) | GI50 (LOX IMVI) | GI50 (SR) | GI50 (HOP-92) | GI50 (OVCAR-3) | GI50 (BT-549) | GI50 (MDA-MB-231) | GI50 (T47D) | GI50 (DU-145)
1 | O=C(Cc1ccccc1)NN1C(=O)C(Cl)C1c1cccc([N+](=O)[O-])c1 (stereo unspecified) | 25.6 µM (inactive) | > 60.5 µM (inactive) | 29.8 µM (inactive) | 1.91 µM (inactive) | 90.6 µM (inactive) | > 100 µM (inactive) | 63.2 µM (inactive) | 31.7 µM (inactive) | > 42.9 µM (inactive) | 58.5 µM | 10.4 µM (inactive) | 23.4 µM (inactive) | 5.31 µM (inactive) | 3.06 µM (inactive) | 14 µM (inactive) | 43.4 µM (inactive) | – | – | – | –
2 | CC(O[Si](C)(C)C)C1C=CC(C)n2c(=O)n(-c3ccccc3)c(=O)n21 (stereo unspecified) | > 100 µM (inactive) | – | > 100 µM (inactive) | – | > 100 µM (inactive) | > 100 µM (inactive) | > 100 µM (inactive) | > 100 µM (inactive) | – | > 100 µM | > 100 µM (inactive) | > 100 µM (inactive) | – | > 100 µM (inactive) | < 0.01 µM (active) | > 100 µM (inactive) | – | – | – | –
3 | CC(C)(C)C1=CC(=N/N=c2\scc(-c3ccccc3)n2-c2ccccc2)C=C(C(C)(C)C)C1=O | > 100 µM (inactive) | > 100 µM (inactive) | > 100 µM (inactive) | > 100 µM (inactive) | > 100 µM (inactive) | > 100 µM (inactive) | > 100 µM (inactive) | > 100 µM (inactive) | > 100 µM (inactive) | > 100 µM | > 100 µM (inactive) | > 100 µM (inactive) | > 100 µM (inactive) | > 100 µM (inactive) | > 100 µM (inactive) | > 100 µM (inactive) | – | – | – | –
4 | C=C1c2[nH]c3c([N+](=O)[O-])c(OC)ccc3c2CCN1C(C)=O | > 100 µM (inactive) | > 100 µM (inactive) | > 100 µM (inactive) | > 100 µM (inactive) | – | > 100 µM (inactive) | > 100 µM (inactive) | > 100 µM (inactive) | > 100 µM (inactive) | > 100 µM | > 100 µM (inactive) | > 100 µM (inactive) | > 100 µM (inactive) | > 100 µM (inactive) | – | > 100 µM (inactive) | – | – | – | –
5 | COC1(OC)C2(Cl)C(Cl)=C(Cl)C1(Cl)C1C2C2CC1(C(=O)O)c1ccccc12 (stereo unspecified) | – | 35.7 µM (inactive) | 15 µM (inactive) | – | 33.3 µM (inactive) | 28.1 µM (inactive) | 18.5 µM (inactive) | – | 26.2 µM (inactive) | 23.8 µM | 22.1 µM (inactive) | 17.5 µM (inactive) | 16.7 µM (inactive) | 9.55 µM (inactive) | 35.6 µM (inactive) | 18.2 µM (inactive) | – | – | – | –
6 | CCN(CC)CCN1C(=O)c2c(c(-c3ccccc3)c3ccccc3c2-c2ccccc2)C1=O | 25.8 µM (inactive) | > 100 µM (inactive) | > 100 µM (inactive) | > 100 µM (inactive) | > 100 µM (inactive) | > 100 µM (inactive) | 81.7 µM (inactive) | > 100 µM (inactive) | > 100 µM (inactive) | > 100 µM | > 100 µM (inactive) | > 100 µM (inactive) | > 100 µM (inactive) | – | 36.8 µM (inactive) | – | > 100 µM (inactive) | > 100 µM (inactive) | – | –
7 | c1cc2c(cc1[C@@H]1OC[C@@H]3[C@H]1CO[C@H]3c1ccc3c(c1)OCO3)OCO2 | 20.8 µM (inactive) | > 100 µM (inactive) | > 100 µM (inactive) | > 100 µM (inactive) | > 100 µM (inactive) | 62.2 µM (inactive) | 60.4 µM (inactive) | > 100 µM (inactive) | > 100 µM (inactive) | > 100 µM | 44 µM (inactive) | 26.9 µM (inactive) | 36.2 µM (inactive) | – | 69.3 µM (inactive) | 43.5 µM (inactive) | – | 94 µM (inactive) | 46.3 µM (inactive) | > 100 µM (inactive)
8 | Cc1ccc(S(=O)(=O)N/N=C(/CC(=O)c2c(C)[n+]([O-])c3ccccc3[n+]2[O-])C(=O)Nc2ccccc2C)cc1 | > 100 µM (inactive) | > 100 µM (inactive) | > 100 µM (inactive) | > 100 µM (inactive) | > 100 µM (inactive) | > 100 µM (inactive) | > 100 µM (inactive) | > 100 µM (inactive) | > 100 µM (inactive) | > 100 µM | – | > 100 µM (inactive) | – | 35.5 µM (inactive) | 30.8 µM (inactive) | > 100 µM (inactive) | – | – | – | –
9 | N=C(N)NCCCC(Nc1c2ccccc2nc2ccccc12)C(=O)O (stereo unspecified) | > 100 µM (inactive) | > 100 µM (inactive) | 3.51 µM (inactive) | 44 µM (inactive) | – | > 100 µM (inactive) | > 100 µM (inactive) | > 100 µM (inactive) | > 100 µM (inactive) | > 100 µM | 26.5 µM (inactive) | > 100 µM (inactive) | > 100 µM (inactive) | > 100 µM (inactive) | > 100 µM (inactive) | 82.6 µM (inactive) | – | – | – | –
10 | COc1ccc2c(c1OC)C1=C(C2=O)c2cc3c(cc2CCN1)OCO3 | 42.7 µM (inactive) | 3.42 µM (inactive) | 4.35 µM (inactive) | – | – | 47.2 µM (inactive) | – | 29 µM (inactive) | 2.9 µM (inactive) | 29.4 µM | 19.2 µM (inactive) | 32.8 µM (inactive) | 24.8 µM (inactive) | 21 µM (inactive) | 58.6 µM (inactive) | 31.6 µM (inactive) | – | – | – | –
11 | Oc1nnc(-c2ccc(F)cc2)cc1-c1ccccc1 | 46.1 µM (inactive) | 57.9 µM (inactive) | 38 µM (inactive) | – | 42.6 µM (inactive) | > 100 µM (inactive) | 35.8 µM (inactive) | 80.7 µM (inactive) | > 100 µM (inactive) | > 100 µM | > 100 µM (inactive) | > 100 µM (inactive) | > 100 µM (inactive) | > 100 µM (inactive) | > 100 µM (inactive) | 23.4 µM (inactive) | – | > 100 µM (inactive) | 44.2 µM (inactive) | 57.5 µM (inactive)
12 | Cc1cccc2c1NC(c1c(C)[nH]c3ccccc13)C2 (stereo unspecified) | 56.4 µM (inactive) | 94 µM (inactive) | – | > 100 µM (inactive) | > 100 µM (inactive) | > 100 µM (inactive) | > 100 µM (inactive) | > 100 µM (inactive) | 80.5 µM (inactive) | > 100 µM | 50.1 µM (inactive) | > 100 µM (inactive) | 80 µM (inactive) | > 100 µM (inactive) | 1.41 µM (inactive) | 86.7 µM (inactive) | – | – | – | –
13 | CC(C)[C@]12O[C@H]1[C@@H]1O[C@@]13[C@@]1(C)CCC4=C(COC4=O)[C@@H]1C[C@@H]1O[C@@]13C2=O [TRIPTONIDE] | < 0.01 µM (active) | < 0.01 µM (active) | < 0.01 µM (active) | < 0.0186 µM (active) | 0.0397 µM (active) | 0.0384 µM (active) | 0.101 µM (active) | 0.0119 µM (active) | < 0.0193 µM (active) | 0.0251 µM | < 0.01 µM (active) | < 0.01 µM (active) | < 0.01 µM (active) | < 0.01 µM (active) | 0.0237 µM (active) | < 0.0133 µM (active) | – | 0.0248 µM (active) | 0.0238 µM (active) | 0.0235 µM (active)
14 | COc1ccc(/C=N/Nc2nc(-c3cc4oc(=O)n(C)c4cc3Cl)cs2)cc1OC | 15.4 µM (inactive) | 7.66 µM (inactive) | 11.2 µM (inactive) | – | > 100 µM (inactive) | 4.35 µM (inactive) | 15.7 µM (inactive) | 53.1 µM (inactive) | – | 6.65 µM | 15.7 µM (inactive) | 9.04 µM (inactive) | 28.6 µM (inactive) | 77.4 µM (inactive) | 25.4 µM (inactive) | 9.95 µM (inactive) | – | – | – | –
15 | CCOc1cc[n+]([C-](C#N)C#N)cc1 | > 100 µM (inactive) | – | > 100 µM (inactive) | > 100 µM (inactive) | > 100 µM (inactive) | > 100 µM (inactive) | > 100 µM (inactive) | – | > 100 µM (inactive) | > 100 µM | > 100 µM (inactive) | > 100 µM (inactive) | > 100 µM (inactive) | > 100 µM (inactive) | > 100 µM (inactive) | > 100 µM (inactive) | – | – | – | –
16 | COc1cc(Nc2nc3ccc(C(F)(F)F)cc3nc2-c2ccccc2)cc(OC)c1OC | 30 µM (inactive) | 9.1 µM (inactive) | 51.4 µM (inactive) | 27.8 µM (inactive) | > 100 µM (inactive) | 23.8 µM (inactive) | 32.7 µM (inactive) | 21.9 µM (inactive) | 7.66 µM (inactive) | 4.41 µM | – | – | 4.32 µM (inactive) | 8.3 µM (inactive) | 0.991 µM (active) | 40.6 µM (inactive) | – | – | – | –
17 | CC(C)(C)OC(=O)CC(NC(=O)OC(C)(C)C)C(=O)N[C@@H]1CCCC[C@H]1C(=O)OCc1ccccc1 (stereo partly specified) | > 100 µM (inactive) | 32.7 µM (inactive) | 45.2 µM (inactive) | > 10 µM (inactive) | 19.2 µM (inactive) | 25.2 µM (inactive) | 19.5 µM (inactive) | 32.3 µM (inactive) | 26.4 µM (inactive) | 14.8 µM | 24.7 µM (inactive) | 17.5 µM (inactive) | 29 µM (inactive) | 29.2 µM (inactive) | 53.2 µM (inactive) | 28.9 µM (inactive) | – | 32.5 µM (inactive) | 22.3 µM (inactive) | 32.5 µM (inactive)
18 | O=C(NNc1ccccc1)/C(=C/c1ccc2c(c1)OCO2)NC(=O)c1ccccc1 | > 100 µM (inactive) | > 100 µM (inactive) | 66.2 µM (inactive) | 33.3 µM (inactive) | > 100 µM (inactive) | > 100 µM (inactive) | 98.4 µM (inactive) | > 100 µM (inactive) | 96.2 µM (inactive) | > 100 µM | > 100 µM (inactive) | > 100 µM (inactive) | 41.6 µM (inactive) | 32.2 µM (inactive) | > 100 µM (inactive) | 69 µM (inactive) | – | – | – | –
